Laboratory results from patent US9890407B2, “Method for synthesizing cellulose in vitro” (University of Virginia Patent Foundation, priority 2013, dated 2018).

Columns and labels:
[1] = target: T1, Rhodobacter sphaeroides BcsA-B complex, BcsA variant R580A (Arg580Ala; parent BcsA SEQ ID NO: 1), BcsB SEQ ID NO: 3 (Cereibacter sphaeroides, UniProt Q3J125, R580A); assay type: biochemical; conditions: c-di-GMP more than 50-fold above its dissociation constant
[2] = target: T2, Rhodobacter sphaeroides BcsA-B complex, wild type (WT), BcsA SEQ ID NO: 1, BcsB SEQ ID NO: 3 (Cereibacter sphaeroides, UniProt Q3J125); assay: Isothermal titration calorimetry, c-di-GMP binding to wild type BcsA-B; conditions: ITC, 1 mM LFCE14, 25° C.
T2 construct: E. coli; purified in LFCE14 detergent for ITC
T2 sequence (Q3J125 1-788): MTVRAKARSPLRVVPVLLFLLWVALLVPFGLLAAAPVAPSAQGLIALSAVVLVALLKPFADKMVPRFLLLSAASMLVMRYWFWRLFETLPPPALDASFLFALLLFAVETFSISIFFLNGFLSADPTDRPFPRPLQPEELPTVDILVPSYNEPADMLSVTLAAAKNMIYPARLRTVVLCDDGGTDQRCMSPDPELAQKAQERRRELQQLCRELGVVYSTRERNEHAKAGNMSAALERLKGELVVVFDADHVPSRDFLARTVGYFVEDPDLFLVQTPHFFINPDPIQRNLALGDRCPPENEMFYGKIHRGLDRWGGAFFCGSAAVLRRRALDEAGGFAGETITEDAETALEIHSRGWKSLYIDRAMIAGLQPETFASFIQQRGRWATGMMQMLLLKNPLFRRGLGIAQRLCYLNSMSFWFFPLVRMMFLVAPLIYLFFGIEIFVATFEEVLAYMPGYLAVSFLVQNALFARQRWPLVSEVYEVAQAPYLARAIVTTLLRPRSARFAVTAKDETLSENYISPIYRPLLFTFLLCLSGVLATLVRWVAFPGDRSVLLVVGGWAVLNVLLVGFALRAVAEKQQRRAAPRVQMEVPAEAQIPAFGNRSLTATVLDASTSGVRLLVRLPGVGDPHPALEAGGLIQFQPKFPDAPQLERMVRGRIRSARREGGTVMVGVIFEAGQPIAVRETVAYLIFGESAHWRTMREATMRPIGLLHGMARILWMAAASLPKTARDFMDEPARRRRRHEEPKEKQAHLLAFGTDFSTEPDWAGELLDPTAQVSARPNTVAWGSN
T2 sequence (Q3J126 21-725 partner): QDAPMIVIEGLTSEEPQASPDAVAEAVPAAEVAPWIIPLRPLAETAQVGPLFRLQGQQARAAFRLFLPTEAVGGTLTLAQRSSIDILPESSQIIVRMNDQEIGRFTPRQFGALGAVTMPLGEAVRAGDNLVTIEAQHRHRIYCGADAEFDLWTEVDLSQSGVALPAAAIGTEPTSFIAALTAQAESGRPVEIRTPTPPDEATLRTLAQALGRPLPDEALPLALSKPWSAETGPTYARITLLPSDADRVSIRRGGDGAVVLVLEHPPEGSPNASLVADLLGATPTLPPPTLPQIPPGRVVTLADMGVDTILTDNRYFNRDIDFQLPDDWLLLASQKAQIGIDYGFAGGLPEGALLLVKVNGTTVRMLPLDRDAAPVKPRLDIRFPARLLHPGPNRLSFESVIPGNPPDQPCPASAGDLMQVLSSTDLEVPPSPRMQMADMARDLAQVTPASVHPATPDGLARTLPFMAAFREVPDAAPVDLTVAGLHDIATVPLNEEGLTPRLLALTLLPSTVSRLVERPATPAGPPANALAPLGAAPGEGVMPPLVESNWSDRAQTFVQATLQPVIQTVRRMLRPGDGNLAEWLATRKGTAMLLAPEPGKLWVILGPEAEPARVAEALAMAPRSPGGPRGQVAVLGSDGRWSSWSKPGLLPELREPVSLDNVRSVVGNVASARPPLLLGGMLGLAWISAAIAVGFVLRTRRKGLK
Procedure: (§1) FIG. 23A-23B (also referred to as Example 2, Supplementary FIG. 5): Cellulose synthesis activity of BcsA mutants and c-di-GMP binding. (FIG. 23A) Cellulose synthesis assays were performed in inverted membrane vesicles and proteoliposomes as described in the Experimental Procedures. The amount of ^3H-glucose-labeled cellulose produced by each mutant is quantified and graphed. 1 μl of IMV's were used for each mutant. For PL assays, the protein concentrations were matched based on UV absorbance and SDS-PAGE followed by Coomassie staining. The apparent lower activity of the R580A mutant may be due to differences in the relative orientation of the enzyme in the PLs or its overall stability. +/−: Experiments performed in the presence and absence of 30 μM c-di-GMP. All data represent the means±SD for 3 technical replicates. (FIG. 23B) Binding of c-di-GMP to the BcsA-R580A mutant. The ability of the R580A mutant to bind c-di-GMP was assessed using ITC.
(§2) The protein was purified in 1 mM LFCE14 as described above. Measurements were carried out at 25° C. in a MicroCal iTC200 system (GE Healthcare) with 250 μl of BcsA-B in the cell at 9.3 μM for WT and 11 μM for the BcsA-Arg580Ala complex and 400 μM c-di-GMP in the syringe. An initial 0.5 μl injection was followed by 39 1 μl injections spaced 180 s apart with stirring at 700 rpm. The data were fit using Origin 7.0 as provided by the manufacturer.

BcsA-Arg580Ala complex = assay: Isothermal titration calorimetry, c-di-GMP into BcsA-R580A complex; assay type: binding, Rhodobacter sphaeroides; conditions: BcsA-R580A in 1 mM LFCE14, 25° C.; read-out: Kd of c-di-GMP (ITC)
Procedure: as §1, §2

[3] = target: T1, Rhodobacter sphaeroides BcsA-B complex, BcsA variant R580A (Arg580Ala; parent BcsA SEQ ID NO: 1), BcsB SEQ ID NO: 3; assay: Isothermal titration calorimetry, c-di-GMP binding to the BcsA-R580A mutant
Procedure: as §1, §2

[4] = target: T3, Rhodobacter sphaeroides BcsA-B complex (cellulose synthase), wild type, BcsA SEQ ID NO: 1, BcsB SEQ ID NO: 3 (Cereibacter sphaeroides, UniProt Q3J125); assay: Enzyme-coupled (PK/LDH, NADH oxidation) cellulose synthase assay, ND-reconstituted BcsA-B; assay type: biochemical; conditions: titration of UDP-Glc at increasing c-di-GMP concentrations
T3 construct: pETDuet, E. coli C43; purified, reconstituted in nanodiscs, proteoliposomes or detergent
T3 sequence (Q3J125 1-788): T2 sequence (Q3J125 1-788)
T3 sequence (Q3J126 21-725 partner): T2 sequence (Q3J126 21-725 partner)

T1 sequence (Q3J125 entry or part of it R580A, one chain of several): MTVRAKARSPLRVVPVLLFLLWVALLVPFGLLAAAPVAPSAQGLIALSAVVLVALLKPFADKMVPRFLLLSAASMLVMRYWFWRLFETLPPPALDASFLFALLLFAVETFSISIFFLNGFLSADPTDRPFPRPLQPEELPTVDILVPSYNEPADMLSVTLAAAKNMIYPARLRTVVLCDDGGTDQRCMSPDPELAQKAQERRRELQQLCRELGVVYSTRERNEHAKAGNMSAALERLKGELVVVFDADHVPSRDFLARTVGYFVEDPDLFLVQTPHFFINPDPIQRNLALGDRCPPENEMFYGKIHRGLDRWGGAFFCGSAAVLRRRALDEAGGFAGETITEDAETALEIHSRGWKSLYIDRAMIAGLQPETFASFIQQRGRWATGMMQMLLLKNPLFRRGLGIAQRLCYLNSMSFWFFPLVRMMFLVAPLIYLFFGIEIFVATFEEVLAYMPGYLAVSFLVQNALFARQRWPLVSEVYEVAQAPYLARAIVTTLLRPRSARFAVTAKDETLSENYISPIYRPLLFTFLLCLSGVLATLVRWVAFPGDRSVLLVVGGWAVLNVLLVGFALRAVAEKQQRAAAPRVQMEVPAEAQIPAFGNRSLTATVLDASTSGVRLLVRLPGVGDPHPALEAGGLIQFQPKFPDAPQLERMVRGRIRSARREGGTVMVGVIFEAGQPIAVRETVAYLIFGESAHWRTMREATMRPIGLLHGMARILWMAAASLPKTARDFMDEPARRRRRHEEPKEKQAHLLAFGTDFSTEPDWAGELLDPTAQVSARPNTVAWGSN

Structure (SMILES): Nc1nc2c(ncn2[C@@H]2O[C@@H]3COP(=O)(O)O[C@H]4[C@@H](O)[C@H](n5cnc6c(=O)[nH]c(N)nc65)O[C@@H]4COP(=O)(O)O[C@H]3[C@H]2O)c(=O)[nH]1 [c-di-GMP, cyclic dimeric guanosine monophosphate]
- stimulation of cellulose biosynthesis by c-di-GMP [1]: no further stimulation
- Kd [2]: 400 nM
- Kd (BcsA-Arg580Ala complex): 1600 nM
- Kd [3]: 1600 nM
- stoichiometry of c-di-GMP binding ([3]; ITC, 1 mM LFCE14, 25° C.): ~0.5
- effect of c-di-GMP on BcsA's apparent affinity for UDP-Glc [4]: does not alter BcsA's apparent affinity for UDP-Glc
